Results from publication PMC5786306, “An AKAP-Lbc-RhoA interaction inhibitor promotes the translocation of aquaporin-2 to the plasma membrane of renal collecting duct principal cells” (PLoS ONE, 2018).
Where two headings read alike, the source gives them in different places.

Legend:
[1] = target: T1, interaction of AKAP-Lbc/DHPH and RhoA (Homo sapiens, UniProt P61586); assay: Homogeneous time-resolved fluorescence (HTRF) assay; type: binding; details: for inhibitory effect on the AKAP-Lbc/DHPH-RhoA interaction: result in words
T1 construct: His6-AKAP-Lbc/DHPH (aa 1972–2342 of human AKAP-Lbc; NP_006729.4); made in house
T1 sequence (P61586 whole entry, the tested form may be a part): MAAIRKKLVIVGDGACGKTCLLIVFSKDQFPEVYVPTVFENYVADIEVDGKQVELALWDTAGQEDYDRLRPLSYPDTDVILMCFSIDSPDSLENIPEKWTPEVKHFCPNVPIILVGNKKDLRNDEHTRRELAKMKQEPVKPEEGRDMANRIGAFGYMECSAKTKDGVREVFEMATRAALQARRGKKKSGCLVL
Excerpt: Fig 2 The small molecule Scaff10-8 inhibits the interaction of the DH domain of AKAP-Lbc and RhoA. (A). Principle of homogenous time-resolved fluorescence (HTRF) assay. Recombinant His-AKAP-Lbc/DHPH and GST-RhoA were generated. The tags are recognized by specific antibodies coupled to fluorescent dyes. When the two proteins interact, donor and acceptor dyes of the antibodies are in close proximity, energy transfer occurs upon excitation at 320 nm and a FRET signal is detected (665 nm). If a compound disrupts the interaction of the DHPH domain and RhoA, the proximity of the fluorescent moieties remains insufficient for a FRET signal to occur. […] As expected, excess untagged Rho decreases the binding between GST-RhoA and His-AKAP-Lbc/DHPH in a dose-dependent manner (lower left panel). […] (C) The influence of Scaff10-8 on the interaction of RhoA with the recombinant DH domain of AKAP-Lbc in the absence of the PH domain was determined by Alpha screen. […] The IC50 value is indicated.
The assay was essentially carried out as described. Scaff10 derivatives were added to His6-AKAP-Lbc/DHPH protein (250 nM final concentration) in HTRF buffer (PBS; 4 mM MgCl2; 0.05% Tween 20) in 384 well plates (Proxiplate-384 Plus, white, #6008289; Perkin Elmer LAS, Rodgau, Germany). Concentrations of Scaff10 derivatives ranged between 1.56–200 μM (2% DMSO final concentration); HTRF buffer with 2% DMSO served as a control. GST-RhoA (30 nM final concentration) in HTRF buffer and anti-GST antibody coupled to terbium (donor) and anti-His6-tag antibody coupled to XL665 (acceptor) were added to all wells (final antibody concentration: 2 μg/ml). After 1 h incubation at room temperature in the dark, FRET signals were recorded at 620 and 665 nm using a Genios Pro plate reader (Tecan Austria GmbH, Grödig, AT) and the ratios of […] to 620 nm were calculated. Wells containing no compound were set to 100% interaction of AKAP-Lbc/DHPH with RhoA, wells containing GST-RhoA only (without His6-AKAP-Lbc/DHPH) were set to 0% interaction. To exclude any interference of the tags and/or antibodies with Scaff10 derivatives, a His6-GST fusion protein replaced the two tagged proteins in a control assay. Wells containing His6-GST fusion protein were set to 100% interaction of His6-GST, wells containing no fusion protein were set to 0% interaction.

Nephelometric solubility = type: physicochemical; details: maximal solubility in DMEM + 10 % FCS
Description: Solubility of Scaff10 derivatives was assessed nephelometrically. Scaff10 derivatives are moderately to poorly soluble in aqueous solutions due to their large number of aromatic rings having lipophilic character. Details about NMR, LC/MS and HPLC characterization steps are given in the Supplemental Information.
Suppl. Tab. 3: Overview of all 55 Scaff10 derivatives.Structures labeld with 1 were commercially obtained. MW = molecular weight. logP = calculated partition coefficient (using […]
Solubility was assessed nephelometrically in DMEM + 10 % FCS + Scaff10 derivative with either 0.3 or 2 % DMSO
final concentration; values in µM indicate maximal solubility of the compound under the respective condition. Yield in % indicates total yield of the last step of chemical synthesis
for each of Scaff10 derivatives. n.d. = not determined. n.i. = not indicated.
Scaff10 MW Number of exp. 2 % DMSO 0.3 % DMSO Scaff10 Yield
Structure log P Disruption of the PPI IC50 [µM]
derivative [g/mol] in dupl. [µM] [µM] class [%]

[2] = IC50 ± SEM, Table 1, HTRF, '-' = no IC50, inactive (n.d. is used separately in S3 Table)
[3] = DMEM + 10 % FCS, plasma or biological fluid, kinetic from dmso stock, 0.3 % DMSO final, read-out: Solubility 0.3 % DMSO
[4] = Suppl. Tab. 3, ± SEM, '-' = no IC50, inactive, n.d. = not determined, read-out: HTRF assay IC50
[5] = DMEM + 10 % FCS, plasma or biological fluid, kinetic from dmso stock, 2 % DMSO final, read-out: Solubility 2 % DMSO
[6] = Table 1, HTRF, '-' = no IC50, inactive (n.d. is used separately in S3 Table), read-out: IC50 ± SEM
[7] = 0.3 % DMSO final, read-out: Solubility 0.3 % DMSO
[8] = 2 % DMSO final, read-out: Solubility 2 % DMSO
[9] = IC50 for inhibition of the AKAP-Lbc/DHPH-RhoA interaction, HTRF, text and figures, ± SEM, n = 3–15 in duplicate

| solubility (Nephelometric solubility; [3]) [µM] | IC50 [1, 4] [µM] | solubility (Nephelometric solubility; [5]) [µM] | IC50 [1, 6] [µM] | solubility (Nephelometric solubility; [8]) [µM] | Compound | further results |
| --- | --- | --- | --- | --- | --- | --- |
| > 150 |  |  |  |  | COc1ccc(-c2coc3cc4oc(=O)c(CCC(=O)NCC(=O)O)c(C)c4cc23)cc1 [Scaff10-61] | IC50 [1, 2]: 64 ± 6 µM |
| > 150 | 26.8 ± 3.5 | 70 |  |  | COc1ccc(-c2coc3c(C)c4oc(=O)c(CCC(=O)O)c(C)c4cc23)cc1 [Scaff10-50] |  |
|  | > 200 | 30 |  |  | COc1ccc(C(=O)COc2ccc3ccc(=O)oc3c2)cc1 [AE167, 7-[2-(4-Methoxyphenyl)-2-oxo-ethoxy]chromen-2-one] |  |
| > 150 |  | > 100 | 66.7 ± 7.5 |  | Cc1c(CCC(=O)O)c(=O)oc2cc3occ(-c4ccccc4)c3cc12 [Scaff10-58] |  |
|  |  | > 100 |  |  | Cc1c(CCC(=O)O)c(=O)oc2cc3occ(-c4ccc(C(F)(F)F)cc4)c3cc12 [Scaff10-30] | inhibitory effect on the AKAP-Lbc/DHPH-RhoA interaction ([1]; HTRF): reduced; IC50 [1, 2]: 47.8 ± 7.8 µM |
| 40 |  | 15 |  |  | COc1ccc2cc(-c3coc4cc5oc(=O)c(CCC(=O)O)c(C)c5cc34)ccc2c1 [Scaff10-44] | IC50 [1, 2]: 20.7 ± 2.5 µM |
| > 150 |  | 70 |  |  | COc1cccc(-c2ccc(-c3coc4cc5oc(=O)c(CCC(=O)O)c(C)c5cc34)cc2)c1 [Scaff10-64] | IC50 [1, 2]: 28.9 ± 9.3 µM |
| > 150 | > 200 | 40 |  |  | Cc1nc(-c2ccc(F)cc2)ccc1C(=O)COc1ccc2c(C)c(C)c(=O)oc2c1 [Scaff10-4, 7-[2-[6-(4-Fluorophenyl)-2-methyl-3-pyridyl]-2-oxo-ethoxy]-3,4-dimethyl-chromen-2-one] |  |
|  |  |  | > 200 | > 100 | Cc1c(CCC(=O)O)c(=O)oc2cc(OCC(=O)c3ccc(N(C)C)cc3)ccc12 [Scaff10-35] | inhibitory effect on the AKAP-Lbc/DHPH-RhoA interaction ([1]; HTRF): complete loss of activity; solubility (Nephelometric solubility; [7]): > 150 µM |
|  | > 200 |  |  |  | COc1ccc(C(=O)COc2ccc3c(C)c(CCC(=O)NCCNC(=O)CCCCC4SCC5NC(=O)NC54)c(=O)oc3c2)cc1 (stereo not drawn) [Scaff10-9, N-[2-[3-[7-[2-(4-Methoxyphenyl)-2-oxo-ethoxy]-4-methyl-2-oxo-chromen-3-yl]propanoylamino]ethyl]-5-(2-oxo-1,3,3a,4,6,6a-hexahydrothieno[3,4-d]imidazol-4-yl)pentanamide] |  |
| 75 |  | 30 |  |  | COc1cccc(-c2ccc(C(=O)COc3ccc4c(C)c(CCC(=O)O)c(=O)oc4c3)cc2)c1 [Scaff10-63] | IC50 [1, 9]: 24 ± 8 µM; IC50 [1, 2]: 24.4 ± 8.4 µM |
| > 150 | > 200 | 40 |  |  | Cc1c(C)c2cc3c(-c4cccnc4)coc3cc2oc1=O [Scaff10-3, 5,6-Dimethyl-3-(3-pyridyl)furo[3,2-g]chromen-7-one] |  |
| > 150 |  | 100 | > 200 |  | COc1ccc(C(=O)COc2ccc3c(C)c(CCC(=O)O)c(=O)oc3c2)cc1 [Scaff10-6, 3-[7-[2-(4-Methoxyphenyl)-2-oxo-ethoxy]-4-methyl-2-oxo-chromen-3-yl]propanoic acid] |  |
|  |  |  | > 200 | 15 | COc1ccc2cc(-c3coc4cc5oc(=O)c(C)c(C)c5cc34)ccc2c1 [Scaff10-47] | inhibitory effect on the AKAP-Lbc/DHPH-RhoA interaction ([1]; HTRF): no inhibitory effect; solubility (Nephelometric solubility; [7]): > 150 µM |
|  |  | 50 |  |  | Cc1c(CCC(=O)O)c(=O)oc2cc3occ(-c4ccc(-c5ccccc5)cc4)c3cc12 [Scaff10-41] | IC50 [1, 2]: 29.1 ± 2.6 µM |
|  | > 200 |  |  | 30 | CCOC(=O)CCc1c(C)c2ccc(OCC(=O)c3ccc(-c4ccc(F)cc4)nc3C)cc2oc1=O [Scaff10-10, Ethyl 3-[7-[2-[6-(4-fluorophenyl)-2-methyl-3-pyridyl]-2-oxo-ethoxy]-4-methyl-2-oxo-chromen-3-yl]propanoate] | solubility (Nephelometric solubility; [7]): > 150 µM |
|  |  |  | > 200 | 20 | COc1ccc(-c2coc3cc4oc(=O)c(CCC(=O)NO)c(C)c4cc23)cc1 [Scaff10-51] | inhibitory effect on the AKAP-Lbc/DHPH-RhoA interaction ([1]; HTRF): almost complete loss of activity; solubility (Nephelometric solubility; [7]): 40 µM |
|  | > 200 |  |  | 75 | COc1ccc(C(=O)COc2ccc3c(C)c(C)c(=O)oc3c2)cc1 [AE168, [2-(4-Methoxyphenyl)-2-oxo-ethoxy]-3,4-dimethyl-chromen-2-one] |  |
| 40 | > 200 | 45 |  |  | COc1ccc(-c2coc3cc4oc(=O)ccc4cc23)cc1 [Scaff10-1, 3-(4-Methoxyphenyl)furo[3,2-g]chromen-7-one] |  |
| > 150 | > 200 | 65 |  |  | Cc1nc(-c2ccc(F)cc2)ccc1-c1coc2cc3oc(=O)c(C)c(C)c3cc12 [Scaff10-5, 3-[6-(4-Fluorophenyl)-2-methyl-3-pyridyl]-5,6-dimethyl-furo[3,2-g]chromen-7-one] |  |
| 10 |  | 15 |  |  | Cc1c(CCC(=O)O)c(=O)oc2cc(OCC(=O)c3ccc(-c4ccccc4)cc3)ccc12 [Scaff10-40] | IC50 [1, 9]: 21 ± 3 µM; IC50 [1, 2]: 20.8 ± 2.6 µM |
| 75 | > 200 | 90 |  |  | Cc1c(C)c2ccc(OCC(=O)c3cccnc3)cc2oc1=O [Scaff10-2, 3,4-Dimethyl-7-[2-oxo-2-(3-pyridyl)ethoxy]chromen-2-one] |  |
| > 150 |  | > 100 | 56.4 ± 4.5 |  | COc1ccc(-c2coc3cc4oc(=O)c(CC(=O)O)c(C)c4cc23)cc1 [Scaff10-49] | IC50 ([1]; HTRF, text and figures, ± SEM, n = 3–15 in duplicate, read-out: IC50 for inhibition of the AKAP-Lbc/DHPH-RhoA interaction): 56 ± 5 µM |
|  |  |  | > 200 | > 100 | Cc1c(CCC(=O)O)c(=O)oc2cc3occ(-c4ccncc4)c3cc12 [Scaff10-32] | inhibitory effect on the AKAP-Lbc/DHPH-RhoA interaction ([1]; HTRF): complete loss of activity; solubility (Nephelometric solubility; [7]): > 150 µM |
|  |  |  | > 200 | 50 | COc1ccc(-c2coc3cc4oc(=O)c(CCC(=O)N(C)C)c(C)c4cc23)cc1 [Scaff10-26] | inhibitory effect on the AKAP-Lbc/DHPH-RhoA interaction ([1]; HTRF): complete loss of the inhibitory effect; solubility (Nephelometric solubility; [7]): > 150 µM |

| Compound | solubility (Nephelometric solubility; [3]) [µM] | IC50 [1, 4] [µM] | solubility (Nephelometric solubility; [5]) [µM] | IC50 [1, 6] [µM] | solubility (Nephelometric solubility; [8]) [µM] | further results |
| --- | --- | --- | --- | --- | --- | --- |
| Cc1c(C)c2cc3c(-c4ccc(-c5ccccc5)cc4)coc3cc2oc1=O [Scaff10-46] |  |  |  | > 200 | 15 | inhibitory effect on the AKAP-Lbc/DHPH-RhoA interaction ([1]; HTRF): no inhibitory effect; solubility (Nephelometric solubility; [7]): > 150 µM |
